# From patent US11925629B2, “Heterocyclic inhibitors of ERK1 and ERK2 and their use in the treatment of cancer” (Asana Biosciences, LLC, priority 2015, dated 2024)
# Like-named read-outs stand apart in the source and are kept apart here.
# Experiments:
# Format in all cases: cell-based, human
# [1] = system: HT-29 (colorectal carcinoma, B-RafV600E) cells; test: Cell proliferation (Alamar Blue) assay, HT-29
# Method in brief: (§1)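 A 72 h exposure to compound (3-fold series, typically 0.0005 to 10 uM) of cells seeded at 5000/well precedes a 1-3 h Alamar Blue (1×) incubation. Growth inhibition is quantified by fluorescence and fitted to give IC50.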
# [2] = system: phosphorylation of RSK1(S380) (the downstream target of ERK1/2); test: Phospho-RSK1(S380) ELISA assay in HT-29 cells; conditions: phospho-RSK1(S380), read-out: Mechanistic Cell Assay RSK1 Phos HT29 IC50
# Method in brief: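 IC50 values derive from a variable-slope sigmoidal fit of sandwich-ELISA signal (450 nm) for RSK1 Ser380 phosphorylation. The cells were B-RafV600E HT-29 colorectal line, exposed to serially diluted compound for 2 h after overnight seeding, then lysed at 4° C.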
# [3] = system: HCT116 (colorectal carcinoma, K Ras G13D) cells; test: Cell proliferation (Alamar Blue) assay, HCT116
# Method in brief: as §1
# [4] = Homo sapiens, HCT-116, HCT116 cells
# [5] = Homo sapiens, HT-29, HT29 cells
Compound,IC50 ([1]; HT29 cells) [nM],IC50 ([2]; HT29 cells) [nM],"IC50 [3, 4] [nM]","IC50 [1, 5] [nM]","IC50 [2, 5] [nM]",IC50 ([3]; HCT116 cells) [nM]
"Cc1cnc(NC2CCCOC2)nc1-n1ccc(C(=O)N[C@H](CO)c2cccc(Cl)c2)c1 (stereo partly drawn) [Example 152, N-((S)-1-(3-chlorophenyl)-2-hydroxy-ethyl)-1-(5-methyl-2-((tetrahydro-2H-pyran-3-yl)amino)pyrimidin-4-yl)-1H-pyrrole-3-carboxamide]",100 to 250,100 to 250,500 to 2500,–,–,–
"COc1cc(Nc2ncc(C)c(-n3ccc(C(=O)NC(CO)c4ccccc4)c3)n2)ccc1F (stereo not drawn) [Example 154, 1-(2-((4-fluoro-3-methoxy-phenyl)amino)-5-methyl-pyrimidin-4-yl)-N-(2-hydroxy-1-phenylethyl)-1H-pyrrole-3-carboxamide]",–,–,100 to 250,500 to 2500,250 to 500,–
"Cc1cnc(Nc2ccc(F)cc2)nc1-n1cnc(C(=O)NC(CO)c2cccc(Cl)c2)c1 (stereo not drawn) [Example 155, N-(1-(3-chlorophenyl)-2-hydroxy-ethyl)-1-(2-((4-fluoro-phenyl)amino)-5-methyl-pyrimidin-4-yl)-1H-imidazole-4-carboxamide]",–,–,500 to 2500,250 to 500,100 to 250,–
"Cc1cnc(NC2CCCOC2)nc1-n1ccc(C(=O)N[C@H](CO)c2cccc(Cl)c2)c1 (stereo partly drawn) [Example 156, N-((S)-1-(3-chloro-phenyl)-2-hydroxy-ethyl)-1-(5-methyl-2-((tetrahydro-2H-pyran-3-yl)amino)-pyrimidin-4-yl)-1H-pyrrole-3-carboxamide]",250 to 500,250 to 500,–,–,–,500 to 2500
"Cc1cnc(NC2CCOC2)nc1-n1ccc(C(=O)N[C@H](CO)c2ccc(F)c(Cl)c2)c1 (stereo partly drawn) [Example 157, N-((S)-1-(3-chloro-4-fluorophenyl)-2-hydroxy-ethyl)-1-(5-methyl-2-((tetrahydro-furan-3-yl)amino)pyrimidin-4-yl)-1H-pyrrole-3-carboxamide]",–,–,500 to 2500,250 to 500,250 to 500,–
"CC(=O)NCC(NC(=O)c1ccn(-c2nc(Nc3ccc4c(c3)OC(F)(F)O4)ncc2C)c1)c1cccc(Cl)c1 (stereo not drawn) [Example 158, N-(2-acetamido-1-(3-chloro-phenyl)-ethyl)-1-(2-((2,2-difluoro-benzo[d][1,3]dioxol-5-yl)-amino)-5-methyl-pyrimidin-4-yl)-1H-pyrrole-3-carboxamide]",–,–,500 to 2500,500 to 2500,> 2500,–
"Cc1cnc(Nc2cccc3c2OC(F)(F)O3)nc1-n1ccc(C(=O)NC(CO)c2cccc(Cl)c2)c1 (stereo not drawn) [Example 160, N-(1-(3-chloro-phenyl)-2-hydroxy-ethyl)-1-(2-((2,2-difluoro-benzo[d][1,3]dioxol-4-yl)amino)-5-methyl-pyrimidin-4-yl)-1H-pyrrole-3-carboxamide]",–,–,> 2500,> 2500,500 to 2500,–
"Cc1cnc(N[C@H]2CCOC2)nc1-n1ccc(C(=O)N[C@H](CO)c2cccc(Cl)c2)c1 [Example 161, N-((S)-1-(3-chlorophenyl)-2-hydroxy-ethyl)-1-(5-methyl-2-(((S)-tetra-hydrofuran-3-yl)amino)pyrimidin-4-yl)-1H-pyrrole-3-carboxamide]",–,–,250 to 500,≤ 100,≤ 100,–
"Cc1cnc(N[C@@H]2CCOC2)nc1-n1ccc(C(=O)N[C@H](CO)c2cccc(Cl)c2)c1 [Example 162, N-((S)-1-(3-chlorophenyl)-2-hydroxy-ethyl)-1-(5-methyl-2-(((R)-tetra-hydrofuran-3-yl)amino)pyrimidin-4-yl)-1H-pyrrole-3-carboxamide]",–,–,500 to 2500,100 to 250,≤ 100,–
"Cc1cnc(Nc2ccc(F)cc2)cc1-n1ccc(C(=O)NC(CN)c2ccc(F)c(Cl)c2)c1 (stereo not drawn) [Example 164, N-(2-amino-1-(3-chloro-4-fluoro-phenyl)ethyl)-1-(2-((4-fluorophenyl)-amino)-5-methyl-pyridin-4-yl)-1H-pyrrole-3-carboxamide]",–,–,> 2500,500 to 2500,500 to 2500,–
"Cc1cnc(NC2CCOC2)cc1-n1ccc(C(=O)NC(CO)c2cccc(Cl)c2)c1 (stereo not drawn) [Example 165, N-(1-(3-chloro-phenyl)-2-hydroxy-ethyl)-1-(5-methyl-2-((tetra-hydrofuran-3-yl)amino)pyridin-4-yl)-1H-pyrrole-3-carboxamide]",–,–,> 2500,> 2500,500 to 2500,–
"Cc1cnc(Nc2ccc(F)cc2Cl)nc1-n1cnc(C(=O)NC(CO)c2cccc(Cl)c2)c1 (stereo not drawn) [Example 166, 1-(2-((2-chloro-4-fluorophenyl)amino)-5-methyl-pyrimidin-4-yl)-N-(1-(3-chlorophenyl)-2-hydroxy-ethyl)-1H-imidazole-4-carboxamide]",–,–,> 2500,500 to 2500,250 to 500,–
"CC[C@H](CO)Nc1ncc(C)c(-n2ccc(C(=O)NC(CO)c3cccc(Cl)c3)c2)n1 (stereo partly drawn) [Example 167, N-(1-(3-chloro-phenyl)-2-hydroxy-ethyl)-1-(2-(((R)-1-hydroxy-butan-2-yl)amino)-5-methyl-pyrimidin-4-yl)-1H-pyrrole-3-carboxamide]",–,–,> 2500,500 to 2500,500 to 2500,–

# Now from value to molecule:
IC50 ([1]; HT29 cells) [nM],IC50 ([2]; HT29 cells) [nM],"IC50 [3, 4] [nM]","IC50 [1, 5] [nM]","IC50 [2, 5] [nM]",IC50 ([3]; HCT116 cells) [nM],Compound
–,–,> 2500,> 2500,500 to 2500,–,"CC[C@H](CO)Nc1cc(-n2cnc(C(=O)NC(CO)c3cccc(Cl)c3)c2)c(Cl)cn1 (stereo partly drawn) [Example 168, 1-(5-chloro-2-(((R)-1-hydroxybutan-2-yl)amino)pyridin-4-yl)-N-(1-(3-chlorophenyl)-2-hydroxyethyl)-1H-imidazole-4-carboxamide]"
–,–,500 to 2500,250 to 500,500 to 2500,–,"Cc1cnc(Nc2ccc(F)cc2Cl)nc1-n1ccc(C(=O)NC(CN)c2cccc(Cl)c2)c1 (stereo not drawn) [Example 169, N-(2-amino-1-(3-chlorophenyl)ethyl)-1-(2-((2-chloro-4-fluorophenyl)amino)-5-methylpyrimidin-4-yl)-1H-pyrrole-3-carboxamide]"
–,–,> 2500,500 to 2500,> 2500,–,"O=C(N[C@H](CO)c1cccc(Cl)c1)c1cn(-c2ccnc(NC3CCOC3)c2)cn1 (stereo partly drawn) [Example 170, N-((S)-1-(3-chlorophenyl)-2-hydroxyethyl)-1-(2-((tetrahydrofuran-3-yl)amino)pyridin-4-yl)-1H-imidazole-4-carboxamide]"
–,–,> 2500,500 to 2500,> 2500,–,"Cc1cnc(Nc2cccnc2)cc1-n1ccc(C(=O)NC(CO)c2ccc(F)c(Cl)c2)c1 (stereo not drawn) [Example 171, N-(1-(3-chloro-4-fluorophenyl)-2-hydroxyethyl)-1-(5-methyl-2-(pyridin-3-ylamino)pyridin-4-yl)-1H-pyrrole-3-carboxamide]"
–,–,250 to 500,500 to 2500,100 to 250,–,"Cc1cnc(Nc2ccc3c(c2)OCO3)nc1-n1ccc(C(=O)NC(CO)c2ccc(F)cc2)c1 (stereo not drawn) [Example 172, 1-(2-(benzo[d][1,3]dioxol-5-ylamino)-5-methylpyrimidin-4-yl)-N-(1-(4-fluorophenyl)-2-hydroxyethyl)-1H-pyrrole-3-carboxamide]"
–,–,100 to 250,100 to 250,100 to 250,–,"Cc1cnc(Nc2ccc3c(c2)CCCO3)nc1-n1ccc(C(=O)NC(CO)c2ccccc2)c1 (stereo not drawn) [Example 173, 1-(2-(chroman-6-ylamino)-5-methylpyrimidin-4-yl)-N-(2-hydroxy-1-phenylethyl)-1H-pyrrole-3-carboxamide]"
